Laboratory results from US20110053897A1 (IRM LLC, priority 2009, published 2011).
pIC50: −log10 of the molar value. Where two headings read alike, the source gives them in different places.

Biological target: T1, Syk kinase (Homo sapiens, UniProt P43405)
T1 construct: purchased
Experiment: Syk kinase inhibition, Caliper LabChip off-chip mobility-shift kinase assay
Format: biochemical
Details: read-out: Syk Enzyme IC50
Outline: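 Purified Syk pre-incubated 15 min with compound in 100 mM HEPES pH 7.5, 1 mM DTT, 10 mM MgCl2 or MnCl2, 0.002% Brij-35, then 1.5 μM fluorescein peptide and ATP at apparent KM added; 1–1.5 h at room temperature, 4% DMSO, EDTA stop. Microfluidic mobility-shift product/substrate conversion gave % inhibition; IC50 from 12-point series (10–0.00003 μM) by 4-parameter fit.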

| SMILES | pIC50 | pIC50 (Caliper LabChip assay) |
| --- | --- | --- |
| Cc1ccnc(Nc2cc3ccn(CCO)c(=O)c3c(NC(C)(C)C)n2)c1 [compound 487] | 6.99 | – |
| COCCN1CCC(c2ccc(Nc3nc(-c4cnc5nccn5c4)cc4cc[nH]c(=O)c34)cc2C)CC1 [compound 30] | 8.10 | – |
| COc1cncc(-c2cc3cc[nH]c(=O)c3c(Nc3ccc(N4CCC(OC)CC4)cc3)n2)n1 [compound 20] | 6.50 | – |
| CC(=O)N1CCC(c2ccc(Nc3nc(Nc4cc(C)ccn4)cc4ccn(C)c(=O)c34)cc2)CC1 [compound 310] | 6.12 | – |
| CC(=O)c1cc2cc[nH]c(=O)c2c(Nc2ccc(C3CCN(C4CC4)CC3)c(C)c2)n1 [compound 221] | 6.60 | – |
| CCOCCc1cc2cc[nH]c(=O)c2c(Nc2ccc(N3CCO[C@H](C)C3)c(C)c2)n1 [compound 222] | 6.61 | – |
| Cc1ccnc(Nc2cc3cc[nH]c(=O)c3c(NC3CCN(C)CC3)n2)c1 [compound 550] | 6.95 | – |
| CCN1CCN(CCc2ccc(Nc3nc(Nc4ccc(C)cn4)cc4cc[nH]c(=O)c34)cc2)CC1 [compound 563] | 6.37 | – |
| COc1cncc(-c2cc3cc[nH]c(=O)c3c(Nc3ccc(C4=CCSCC4)c(C)c3)n2)n1 [compound 12] | 5.47 | – |
| COc1cncc(-c2cc3cc[nH]c(=O)c3c(Nc3ccc(CCN4CCN5CCCC5C4)cc3)n2)n1 (centres unmarked) [compound 7] | 7.28 | – |
| Cc1ccnc(Nc2cc3cc[nH]c(=O)c3c(N3CC[C@H](CO)C3)n2)c1 [compound 400] | 6.05 | – |
| COc1cncc(-c2cc3cc[nH]c(=O)c3c(Nc3ccc(C4CCN(CC#N)CC4)c(C)c3)n2)n1 [compound 133] | 6.89 | – |
| Cc1cccnc1Nc1cc2cc[nH]c(=O)c2c(Nc2ccc(N3CCOCC3)cc2)n1 [compound 533] | 6.42 | – |
| COc1ncc(-c2cc3cc[nH]c(=O)c3c(Nc3ccc(CCN4CCCN(C)CC4)cc3)n2)cn1 [compound 436] | 6.85 | – |
| CCn1ccc2cc(Nc3cnccn3)nc(N[C@@H](C)CO)c2c1=O [compound 353] | 7.46 | – |
| CC(C)(C)N1CC=C(c2ccc(Nc3nc(-c4cncnc4)cc4cc[nH]c(=O)c34)cc2)CC1 [compound 94] | 7.89 | – |
| COCCCc1cc2cc[nH]c(=O)c2c(Nc2ccc(N3CCO[C@H](C)C3)c(C)c2)n1 [compound 239] | 5.65 | – |
| Cc1ccnc(Nc2cc3ccn(C)c(=O)c3c(Nc3ccc(C4CCNCC4)cc3)n2)c1 [compound 308] | 8.15 | – |
| Cc1ccnc(Nc2cc3cc[nH]c(=O)c3c(NC[C@H](C)O)n2)c1 [compound 501] | 7.42 | – |
| CCn1ccc2cc(Nc3cc(C)ccn3)nc(NC[C@H]3CC[C@@](C)(O)C3)c2c1=O [compound 416] | 6.75 | – |
| CC(C)(C)Nc1nc(Nc2cc(CO)ncn2)cc2ccn(CCO)c(=O)c12 [Compound No. 607, 8-(tert-butylamino)-2-(2-hydroxyethyl)-6-(6-(hydroxymethyl)pyrimidin-4-ylamino)-2,7-naphthyridin-1(2H)-one] | – | 7.54 |

| SMILES | pIC50 | pIC50 (Caliper LabChip assay) |
| --- | --- | --- |
| CCN1CCN(c2n[nH]c3cc(Nc4nc(-c5cncnc5)cc5cc[nH]c(=O)c45)ccc23)CC1 [compound 199] | 7.70 | – |
| CCn1ccc2cc(Nc3cc(C)ccn3)nc(N[C@H]3CCOC3)c2c1=O [compound 361] | 7.52 | – |
| C[C@@H]1CN([C@H]2CC[C@H](c3ccc(Nc4nc(-c5cncnc5)cc5cc[nH]c(=O)c45)cc3)CC2)CCO1 [compound 93] | 6.36 | – |
| COc1cncc(-c2cc3cc[nH]c(=O)c3c(Nc3ccc(C4CCC(N(C)C)CC4)cc3)n2)n1 (centres unmarked) [compound 109] | 7.51 | – |
| COc1cncc(-c2cc3cc[nH]c(=O)c3c(Nc3ccc(C4CCN(CCCC#N)CC4)c(C)c3)n2)n1 [compound 172] | 7.72 | – |
| CNC(=O)CN1CCC(c2ccc(Nc3nc(-c4cncc(OC)n4)cc4cc[nH]c(=O)c34)cc2C)CC1 [compound 135] | 7.32 | – |
| CCc1ccnc(Nc2cc3ccn(CC)c(=O)c3c(NC(C)C)n2)c1 [compound 304] | 6.42 | – |
| COCCCN1CCC(c2ccc(Nc3nc(-c4cnc(OC)nc4)cc4cc[nH]c(=O)c34)cc2F)CC1 [compound 196] | 7.23 | – |
| CCCc1cc2cc[nH]c(=O)c2c(Nc2ccc(C3CCN(C4CC4)CC3)c(C)c2)n1 [compound 230] | 6.25 | – |
| CCn1ccc2cc(Nc3cnccn3)nc(N[C@@H]3CC[C@H](O)C3)c2c1=O [compound 427] | 7.31 | – |
| Cn1ccc2cc(Nc3cnccn3)nc(Nc3ccc(C4CCN(C5COC5)CC4)cc3)c2c1=O [compound 346] | 6.41 | – |
| CC[C@H](C)Nc1nc(-c2cnc(N)nc2)cc2cc[nH]c(=O)c12 [compound 187] | 6.52 | – |
| CC(C)Nc1nc(-c2cnc(N)nc2)cc2cc[nH]c(=O)c12 [compound 35] | 7.07 | – |
| O=c1[nH]ccc2cc(Nc3ccccn3)nc(N[C@@H]3CCC[C@H]3O)c12 (racemic) [compound 277] | 6.07 | – |
| CC[C@H](C)Nc1nc(Nc2cc(C)ccn2)cc2cc[nH]c(=O)c12 [compound 283] | 6.35 | – |
| Cc1ccnc(Nc2cc3ccn(C)c(=O)c3c(N[C@@H](C)CO)n2)c1 [compound 323] | 7.43 | – |
| Cc1cc(Nc2nc(C(C)C)cc3cc[nH]c(=O)c23)ccc1N1CCO[C@H](C)C1 [compound 226] | 5.76 | – |
| CN1CCN(C2CCC(c3ccc(Nc4nc(-c5cncnc5)cc5cc[nH]c(=O)c45)cc3)CC2)CC1 (centres unmarked) [compound 104] | 7.51 | – |
| Nc1ncc(-c2cc3cc[nH]c(=O)c3c(N3CCCC3)n2)cn1 [compound 181] | 7.82 | – |
| COc1cncc(-c2cc3cc[nH]c(=O)c3c(Nc3ccc(C4CCN(CCC(=O)N(C)C)CC4)c(C)c3)n2)n1 [compound 159] | 7.42 | – |

The next lines start with the values.

| pIC50 | pIC50 (Caliper LabChip assay) | SMILES |
| --- | --- | --- |
| 6.79 | – | CCN1CCN(CCc2ccc(Nc3nc(Nc4ccc(F)cn4)cc4cc[nH]c(=O)c34)cc2)CC1 [compound 580] |
| – | 6.93 | CC(C)(C)Nc1nc(Nc2cc(N3CCC(=O)CC3)ncn2)cc2ccn(CCO)c(=O)c12 [compound 632] |
| – | 6.61 | C/C(=N\OCCN(C)C)c1ccnc(Nc2cc3ccn(CCO)c(=O)c3c(NC(C)(C)C)n2)c1 [compound 686] |
| – | 7.43 | CCC(O)c1ccnc(Nc2cc3ccn(CCO)c(=O)c3c(NC(C)(C)C)n2)c1 (centres unmarked) [compound 710] |
| – | 7.18 | CCn1ccc2cc(Nc3nccc(O)n3)nc(N[C@H]3CCC[C@@H]3O)c2c1=O [compound 956] |
| – | 8.30 | CCn1ccc2cc(-c3cnc(N)nc3)nc(N[C@H]3CC[C@@H](CO)C3)c2c1=O [compound 913] |
| – | 6.89 | Cn1ccc2cc(Nc3nccc(O)n3)nc(N[C@H]3CC[C@@H](O)CC3)c2c1=O [compound 798] |
| – | 5.95 | CCn1ccc2cc(Nc3cnccn3)nc(Nc3ccc(C(=O)N4CCC(O)CC4)cc3)c2c1=O [compound 832] |
| – | 6.79 | CC(C)(C)Nc1nc(Nc2cnccn2)cc2ccn(Cc3cccnc3)c(=O)c12 [compound 1020] |
| – | 6.94 | CC(C)(C)Nc1nc(Nc2cc(C3CCN(CCO)CC3)ncn2)cc2ccn(CCO)c(=O)c12 [compound 640] |
| – | 7.34 | [2H]C([2H])([2H])n1ccc2cc(Nc3cnccn3)nc(N[C@@H](C)CO)c2c1=O [compound 1050] |
| – | 7.16 | CC(C)(C)Nc1nc(Nc2cnccn2)cc2ccn(CCOCCO)c(=O)c12 [compound 1013] |
| – | 7.54 | [2H]C([2H])([2H])n1ccc2cc(Nc3cnccn3)nc(N[C@H]3CC[C@H](O)CC3)c2c1=O [compound 984] |
| – | 6.75 | CC(C)(C)Nc1nc(Nc2cnccn2)cc2ccn(CC(F)F)c(=O)c12 [compound 1023] |
| – | 7.52 | CC(O)c1cc(Nc2cc3ccn(CCO)c(=O)c3c(NC(C)(C)C)n2)ncn1 (centres unmarked) [compound 727] |
| – | 8.15 | O=c1[nH]ccc2cc(Nc3cnccn3)nc(NC3CCCC3)c12 [compound 766] |
| – | 6.84 | CCn1ccc2cc(Nc3cnccn3)nc(NC3CCS(=O)(=O)C3)c2c1=O (centres unmarked) [compound 971] |

| pIC50 | pIC50 (Caliper LabChip assay) | SMILES |
| --- | --- | --- |
| – | 7.09 | CC[C@@H](CO)Nc1nc(Nc2cc(C)ccn2)cc2ccn(CC)c(=O)c12 [compound 597] |
| – | 7.55 | CC(C)(C)Nc1nc(-c2cnc(N)nc2)cc2c(Cl)cn(CCO)c(=O)c12 [compound 666] |
| – | 6.23 | CC(C)(C)Nc1nc(Nc2cc(C3=CCCCO3)ncn2)cc2ccn(CCO)c(=O)c12 [compound 624] |
| – | 6.26 | Nc1ncc(-c2cc3ccn(CCO)c(=O)c3c(N3CCCC3)n2)cn1 [compound 909] |
| 5.57 | – | Cc1ccnc(Nc2cc3cc[nH]c(=O)c3c(Nc3ccc(N4CCO[C@H](C)C4)c(C)c3)n2)c1 [compound 584] |
| – | 6.82 | O=c1[nH]ccc2cc(NC3CCC(O)CC3)nc(Nc3ccc(N4CCOCC4)cc3)c12 (centres unmarked) [compound 657] |
| – | 7.21 | CC(C)(C)Nc1nc(Nc2cc(CCCCO)ncn2)cc2ccn(CCO)c(=O)c12 [compound 629] |
| – | 7.02 | COCCn1ccc2cc(Nc3cnccn3)nc(NC(C)(C)C)c2c1=O [compound 1006] |
| – | 6.61 | Cc1[nH]ncc1-c1ccnc(Nc2cc3ccn(CCO)c(=O)c3c(NC(C)(C)C)n2)c1 [compound 855] |
| – | 7.77 | CC(C)(C)Nc1nc(-c2cnc(N)nc2)cc2ccn(CCO)c(=O)c12 [compound 899] |
| – | 7.55 | CC(C)(C)Nc1nc(Nc2cc(C3(CO)CC3)ccn2)cc2ccn(CCO)c(=O)c12 [compound 860] |
| – | 8.15 | CC(C)n1ccc2cc(-c3cnc(N)nc3)nc(N[C@H]3CC[C@@H](O)C3)c2c1=O [compound 1031] |
| – | 7.85 | COCCN1CCC(Oc2cc(Nc3cc4ccn(CCO)c(=O)c4c(NC(C)(C)C)n3)ncn2)CC1 [compound 647, 8-(tert-butylamino)-2-(2-hydroxyethyl)-6-(6-(1-(2-methoxyethyl)piperidin-4-yloxy)pyrimidin-4-ylamino)-2,7-naphthyridin-1(2H)-one] |
| – | 7.29 | Cc1ccnc(Nc2cc3ccn(C(C)C)c(=O)c3c(N[C@H]3CC[C@H](O)CC3)n2)c1 [compound 964] |
| – | 6.48 | CC(C)(C)Nc1nc(Nc2ccc(F)cn2)cc2ccn(CCO)c(=O)c12 [compound 696] |
| – | 7.31 | CC(C)(C)Nc1nc(Nc2cnccn2)cc2ccn(CCF)c(=O)c12 [compound 1001] |
